According to ChEMBL document CHEMBL5346964, “Discovery of LNP1892: A Precision Calcimimetic for the Treatment of Secondary Hyperparathyroidism” (J Med Chem, 2023):
pEC50, pIC50: −log10 of the molar value.

What was measured:
[1] = molecular target: T1, Extracellular calcium-sensing receptor (Homo sapiens, UniProt P41180); test: Agonist activity at human CaSR expresssed in HEK293 cells in presence of glucose by Fluo4NW dye based FLIPR assay; format: functional, cell-based; settings: read-out: EC50
T1 sequence (P41180 whole entry): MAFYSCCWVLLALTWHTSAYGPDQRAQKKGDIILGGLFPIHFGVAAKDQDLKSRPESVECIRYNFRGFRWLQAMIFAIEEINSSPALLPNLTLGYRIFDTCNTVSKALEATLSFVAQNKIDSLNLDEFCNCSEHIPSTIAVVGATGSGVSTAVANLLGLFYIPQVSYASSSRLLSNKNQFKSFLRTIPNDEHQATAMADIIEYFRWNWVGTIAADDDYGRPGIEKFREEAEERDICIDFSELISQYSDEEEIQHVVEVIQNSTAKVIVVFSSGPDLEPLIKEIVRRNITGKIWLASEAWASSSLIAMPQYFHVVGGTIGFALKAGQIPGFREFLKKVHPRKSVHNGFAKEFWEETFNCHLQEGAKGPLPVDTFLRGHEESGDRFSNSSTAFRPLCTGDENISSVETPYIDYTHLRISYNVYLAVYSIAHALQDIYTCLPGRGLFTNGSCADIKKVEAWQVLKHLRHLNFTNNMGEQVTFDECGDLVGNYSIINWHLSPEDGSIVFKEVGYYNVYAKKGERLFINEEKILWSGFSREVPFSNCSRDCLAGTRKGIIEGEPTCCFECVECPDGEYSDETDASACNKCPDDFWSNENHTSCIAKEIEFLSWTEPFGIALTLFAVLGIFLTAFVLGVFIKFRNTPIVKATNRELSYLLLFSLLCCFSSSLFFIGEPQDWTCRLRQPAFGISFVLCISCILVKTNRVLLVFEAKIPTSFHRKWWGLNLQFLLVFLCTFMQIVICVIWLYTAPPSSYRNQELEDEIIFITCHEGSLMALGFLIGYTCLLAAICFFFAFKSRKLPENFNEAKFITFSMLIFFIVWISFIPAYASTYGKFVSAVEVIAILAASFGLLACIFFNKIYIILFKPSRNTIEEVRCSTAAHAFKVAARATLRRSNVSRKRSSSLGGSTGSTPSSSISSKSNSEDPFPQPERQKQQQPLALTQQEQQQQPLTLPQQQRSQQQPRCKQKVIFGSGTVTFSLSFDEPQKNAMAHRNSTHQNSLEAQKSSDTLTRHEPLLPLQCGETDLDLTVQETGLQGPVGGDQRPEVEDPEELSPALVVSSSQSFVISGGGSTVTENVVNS

[2] = Volume of distribution at steady state in Sprague-Dawley rat at 1 mg/kg, iv measured upto 24 hrs by LC-MS/MS analysis; format: ADME, organism-based; settings: in vivo, read-out: Vdss
[3] = Cmax in Sprague-Dawley rat at 1 mg/kg, iv measured upto 24 hrs by LC-MS/MS analysis; format: ADME, organism-based; design: dose 1 mg/kg, time < 24 hrs, route iv; settings: in vivo
Rattus norvegicus = test: Acute effect on parathyroid hormone in overnight fasted adenine diet-induced chronic kidney disease Wistar rat model assessed as reduction in plasma PTH level at 3 mg/kg, po measured after 2 hrs of post treatment by sandwich ELISA analysis; format: functional; design: scale not given: the % may be the effect or the level left
[4] = AUC(0 to 24 hrs) in Sprague-Dawley rat at 10 mg/kg; format: ADME, organism-based; design: dose 10 mg/kg; settings: in vivo
[5] = Tmax in Sprague-Dawley rat at 100 mg/kg; format: ADME, organism-based; settings: in vivo
[6] = AUC(0 to 24 hrs) in Sprague-Dawley rat at 300 mg/kg; format: ADME, organism-based; design: dose 300 mg/kg; settings: in vivo
[7] = Protein binding in dog plasma incubated for 16 hrs under shaking condition by rapid equilibrium dialysis based LC-MS/MS method; format: ADME, cell-free, Canis lupus familiaris; settings: read-out: PPB
Cytochrome P450 2B6 = molecular target: T2, Cytochrome P450 2B6 (Homo sapiens, UniProt P20813); test: Inhibition of CYP2B6 in human liver microsomes preincubated for 5 mins followed by NADPH addition by LC-MS/MS analysis; format: ADME, Microsome
T2 sequence (P20813 whole entry): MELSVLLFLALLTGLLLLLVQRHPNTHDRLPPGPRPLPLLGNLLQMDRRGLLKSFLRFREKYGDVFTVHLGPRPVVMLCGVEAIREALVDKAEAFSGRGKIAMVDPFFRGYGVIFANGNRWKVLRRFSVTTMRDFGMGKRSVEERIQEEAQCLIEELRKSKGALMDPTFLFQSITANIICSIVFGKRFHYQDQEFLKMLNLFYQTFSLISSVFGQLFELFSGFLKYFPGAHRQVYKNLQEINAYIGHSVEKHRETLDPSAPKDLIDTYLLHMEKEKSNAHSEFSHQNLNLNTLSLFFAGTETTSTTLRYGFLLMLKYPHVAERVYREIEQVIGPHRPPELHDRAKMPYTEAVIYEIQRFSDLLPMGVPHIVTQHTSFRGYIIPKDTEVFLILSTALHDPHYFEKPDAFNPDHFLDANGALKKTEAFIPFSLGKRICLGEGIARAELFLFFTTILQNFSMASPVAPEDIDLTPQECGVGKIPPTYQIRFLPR

[8] = Kinetic solubility of compound upto 500 uM in 0.1N NaOH measured after 16 hrs under shaking condition by UV-visible method; format: physicochemical; settings: read-out: Kinetic_solubility
[9] = Kinetic solubility of compound in FaSSIF upto 500 uM measured after 16 hrs under shaking condition by UV-visible method; format: physicochemical; settings: read-out: Kinetic_solubility
[10] = Kinetic solubility of compound in 20% HP-beta-CD upto 500 uM measured after 16 hrs under shaking condition by UV-visible method; format: physicochemical; settings: read-out: Kinetic_solubility
[11] = Chemical stability of the compound at pH 7.4 measured after 0.5 to 4 hrs; format: physicochemical; settings: buffer, time 0.5-4 hrs
[12] = Chemical stability of the compound at pH 9 measured after 0.5 to 4 hrs; format: physicochemical; settings: buffer, time 0.5-4 hrs
[13] = Oral bioavailability in BALB/c mouse at 10 mg/kg measured upto 24 hrs by LC/MS-MS analysis; format: ADME, organism-based; settings: in vivo
[14] = Volume of distribution at steady state in Sprague-Dawley rat at 1 mg/kg, iv measured upto 24 hrs by LC/MS-MS analysis; format: ADME, organism-based; settings: in vivo, read-out: Vdss
[15] = Tmax in cynomolgus monkey at 5 mg/kg, po measured upto 24 hrs by LC/MS-MS analysis; format: ADME, organism-based, Macaca fascicularis; settings: in vivo
[16] = Cmax in BALB/c mouse at 10 mg/kg, po measured upto 24 hrs by LC/MS-MS analysis; format: ADME, organism-based; design: dose 10 mg/kg, time < 24 hrs, route po; settings: in vivo
[17] = Cmax in Sprague-Dawley rat at 10 mg/kg, po measured upto 24 hrs by LC/MS-MS analysis; format: ADME, organism-based; design: dose 10 mg/kg, time < 24 hrs, route po; settings: in vivo
[18] = Ratio of drug concentration in brain to plasma in Sprague-Dawley rat at 10 mg/kg, po measured upto 24 hrs by LC-MS/MS analysis; format: ADME, organism-based; settings: read-out: BPR
[19] = AUC(0 to t) in rat at 50 mg/kg per day, po via gavage administered for 2 weeks; format: ADME, organism-based; design: dose 50 mg/kg, time 2 weeks, route po; settings: in vivo
[20] = AUC in mouse at 50 mg/kg per day, po via gavage administered for 13 weeks; format: ADME, organism-based; design: dose 50 mg/kg, time 13 weeks, route po; settings: in vivo
[21] = AUC(0 to t) in human at 10 mg/kg, po administered as single dose; format: ADME, organism-based; design: dose 10 mg/kg, route po; settings: in vivo
[22] = AUC(0 to t) in human at 25 mg/kg, po administered as multiple dose on day 8; format: ADME, organism-based; design: dose 25 mg/kg, route po; settings: in vivo
[23] = Genotoxicity in Salmonella typhimurium by Ames test; format: toxicity; settings: salmonella enterica subsp. enterica serovar typhimurium

**Q.** With `Cc1ccc([C@@H]2C[C@H](CN[C@H](C)c3cccc4ccccc34)Oc3ccccc32)cc1C(=O)O.Cl` as the molecule, how does the pEC50 [1] read?
**A.** 8.19

**Q.** And the Vd [2]?
**A.** 1 L/kg

**Q.** And the Cmax [3]?
**A.** 2 µM

**Q.** And the Activity (Rattus norvegicus)?
**A.** 96%

**Q.** And the AUC(0-t) [4]?
**A.** 23 µM·h

**Q.** What about the Tmax [5] of the same molecule?
**A.** 1 h

**Q.** What about the AUC(0-t) [6] of the same molecule?
**A.** 1020 µM·h

**Q.** And the fraction unbound at 16 h [7]?
**A.** < 0.01

**Q.** What about the pIC50 (Cytochrome P450 2B6) of the same molecule?
**A.** 4.19

**Q.** And the solubility kinetic at 16 h, 500 µM [8]?
**A.** > 300 µM

**Q.** What about the solubility kinetic at 16 h, 500 µM [9] of the same molecule?
**A.** > 300 µM

**Q.** And the solubility kinetic at 16 h, 500 µM [10]?
**A.** > 200 µM

**Q.** What about the Stability [11] of the same molecule?
**A.** Stable

**Q.** What about the Stability [12] of the same molecule?
**A.** Stable

**Q.** And the bioavailability [13]?
**A.** 100%

**Q.** What about the Vd [14] of the same molecule?
**A.** 1 L/kg

**Q.** What about the Tmax [15] of the same molecule?
**A.** 1.7 h

**Q.** And the Cmax [16]?
**A.** 31 µM

**Q.** What about the Cmax [17] of the same molecule?
**A.** 14 µM

**Q.** What about the Kp at 24 h [18] of the same molecule?
**A.** 0.2

**Q.** And the AUC(0-t) at 336 h [19]?
**A.** 108000 ng·h/mL

**Q.** What about the AUC at 2184 h [20] of the same molecule?
**A.** 321000 ng·h/mL

**Q.** What about the AUC(0-t) [21] of the same molecule?
**A.** 1840 ng·h/mL

**Q.** What about the AUC(0-t) [22] of the same molecule?
**A.** 5090 ng·h/mL

**Q.** And the Activity [23]?
**A.** Non-Toxic
